Measured values reported in patent US20240368159A1, “HPK1 DEGRADERS, COMPOSITIONS COMPRISING THE HPK1 DEGRADER, AND METHODS OF USING THE SAME” (BIOFRONT LTD, priority 2021, published 2024).

Key:
HPK1 p-SLP-76 = HPK1 p-SLP-76 inhibition assay in human PBMC (HTRF); assay type: cell-based; settings: 6 h compound, anti-CD3 stimulation 20 min
Experimental: Human PBMC were purchased from OriCells (FPB004F-C). Before compound treatment, PBMC were starved in PRMI-1640 medium supplemented with 0.5% FBS overnight. The cell density was adjusted to 1*10^7 cells/mL in assay medium (RPMI-1640 no phenol red with 0.5% FBS) and 16 μL cell suspension was transferred per well to a 384-well plate (Corning #3765). 6× solution of test compound was prepared in assay medium and 4 μL was added per well to the 384-well plate. The plate was then incubated at 37° C., 5% CO2 for 6 h. PBMC in 384-well plate were stimulated with anti-CD3 (BD Biosciences #555329, final conc. is 10 ug/mL) for 20 min at 37° C., 5% CO2 by adding 4 μL 6× antibody solution per well. Phospho-SLP76 HTRF kit was purchased from Cisbio (63ADK076PEH). 8 μL 4× Lysis Buffer was added to 384-well plate after anti-CD3 stimulation. The plate was centrifuged at 1,000 rpm for 1 min, shaken at 250 rpm for 60 min and centrifuged again at 1,000 rpm for 5 min. Afterwards the cell lysates were transferred to the assay plate (Greiner #784075) with 16 μL per well. 4 μL detection antibody mix per well prepared in Detection Buffer was added to the assay plate, followed by centrifugation at 1,000 rpm for 1 min and incubation at 25° C. overnight.

HPK1 protein [1] = target: T1, HPK1 protein (Homo sapiens, UniProt Q92918); assay: HPK1 enzyme inhibition assay (ADP-Glo); assay type: biochemical; settings: MBP substrate, ATP, ADP-Glo readout
T1 construct: purchased Signal Chem M23-11G-10
T1 sequence (Q92918 1-346 limits assumed): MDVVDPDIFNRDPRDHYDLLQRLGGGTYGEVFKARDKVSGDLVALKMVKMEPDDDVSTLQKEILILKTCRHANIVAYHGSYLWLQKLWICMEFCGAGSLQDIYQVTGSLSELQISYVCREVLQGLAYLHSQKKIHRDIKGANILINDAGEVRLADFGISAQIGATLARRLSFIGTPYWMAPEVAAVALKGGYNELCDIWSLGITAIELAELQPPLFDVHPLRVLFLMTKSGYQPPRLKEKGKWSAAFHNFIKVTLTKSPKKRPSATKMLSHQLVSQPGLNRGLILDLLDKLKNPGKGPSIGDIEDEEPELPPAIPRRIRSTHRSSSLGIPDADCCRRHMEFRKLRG
Experimental: The compound was dissolved in 100% DMSO at the concentration of 10 mM. The HPK1 protein was purchased from Signal Chem (M23-11G-10). 2.5 μL per well of 2×HPK1 protein was added to assay plate containing the test compound, centrifuged at 1500 rpm for 1 minute, and then incubated at 25° C. for 60 minutes. MBP protein was purchased from Signal Chem (M42-51N) and ATP was purchased from Promega (V9102). The two were added 2.5 μL per well mixture of 2×MBP (0.2 ug/ul) and ATP (20 μM), centrifuged at 1500 rpm for 1 minute, then incubated at 25° C. for 60 minutes. Then added 5 μL of ADP-Glo from Promega (V9102) to the assay plate and depleted the unconsumed ATP for 60 minutes. Then centrifuged at 1500 rpm for 1 minute and incubated at 25° C. for 60 minutes. Finally, 10 μL of the kinase assay reagent from Promega (V9102) was added to the assay plate to convert ADP to ATP, centrifuged at 1500 rpm for 1 minute, incubate at 25° C. for 40 minutes. After 40 minutes incubation, the […] was determined. Based on the results, the IC50 value of the compound was calculated.

HPK1 protein [2] = target: T2, HPK1 protein (Mus musculus, UniProt P70218); assay: HPK1 protein degradation in mouse pan T cell (western blot); assay type: cell-based; settings: 18 h incubation
T2 construct: the CD3+ T cell population was isolated from spleenocytes of mice; endogenous in cells; host or cells: primary mouse splenic CD3+ (pan) T cells
T2 sequence (P70218 1-827): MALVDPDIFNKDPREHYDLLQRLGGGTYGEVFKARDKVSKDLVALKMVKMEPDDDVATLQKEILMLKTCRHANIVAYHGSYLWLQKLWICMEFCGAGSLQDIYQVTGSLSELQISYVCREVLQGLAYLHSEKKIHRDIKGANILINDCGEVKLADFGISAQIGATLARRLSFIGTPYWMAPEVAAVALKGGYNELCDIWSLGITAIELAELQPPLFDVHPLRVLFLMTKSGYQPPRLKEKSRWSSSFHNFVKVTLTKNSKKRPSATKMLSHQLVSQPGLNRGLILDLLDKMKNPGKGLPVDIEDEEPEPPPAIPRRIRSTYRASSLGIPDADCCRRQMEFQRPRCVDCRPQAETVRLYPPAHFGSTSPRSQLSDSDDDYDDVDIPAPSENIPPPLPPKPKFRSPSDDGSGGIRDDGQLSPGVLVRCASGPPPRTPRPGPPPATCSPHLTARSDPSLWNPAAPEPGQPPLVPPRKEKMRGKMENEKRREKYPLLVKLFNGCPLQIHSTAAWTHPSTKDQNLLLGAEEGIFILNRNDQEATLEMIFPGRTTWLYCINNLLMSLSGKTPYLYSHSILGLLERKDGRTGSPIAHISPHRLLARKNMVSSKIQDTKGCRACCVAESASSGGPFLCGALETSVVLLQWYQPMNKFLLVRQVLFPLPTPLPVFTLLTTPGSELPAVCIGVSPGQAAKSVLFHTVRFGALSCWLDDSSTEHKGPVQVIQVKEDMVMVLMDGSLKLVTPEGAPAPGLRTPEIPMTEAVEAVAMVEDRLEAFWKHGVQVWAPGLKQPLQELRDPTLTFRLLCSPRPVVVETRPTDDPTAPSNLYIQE
Experimental: HPK1 protein degradation in mouse pan T cell: the CD3+ T cell population was isolated from spleenocytes of mice by using Pan T cell isolation kit from Miltenyi Biotec (130-095-130) following manufacture's instruction. The isolated T cells were then incubated with a variety of concentrations of compound. After incubation for 18 h, the cells were collected and lysed. The protein concentration was determined by BCA protein assay kit from Thermo (23227). The HPK1 protein level was determined by western blots, using anti-human HPK1 polyclonal antibody from CST (4472). Proteins were loaded into each well of the pre-casting gels and subjected to electrophoretic separation by SDS-PAGE. The protein resolved by SDS-PAGE were transferred to PVDF, blocked by 5% skim milk and probed with anti-human HPK1 antibody or β-actin antibody from CST (3700S), using following standard western blotting procedure.

Row | Structure (SMILES) | IC50 (HPK1 p-SLP-76) [nM] | IC50 (HPK1 protein [1]) [nM] | Dmax (HPK1 protein [2]) [%]
1 | O=C1CCC(N2C(=O)c3ccc(N4CC(CCOC(=O)N5CCN(c6cccc(-c7cnc8[nH]cc(CC(F)F)c8c7Cl)c6)C(=O)C5)C4)cc3C2=O)C(=O)N1 (centres unmarked) [Example 91] | > 10000 | 10 to 100 | –
2 | CCc1c[nH]c2ncc(-c3cccc(N4CCN(CCCCNc5ccc6c(c5)C(=O)N(C5CCC(=O)NC5=O)C6=O)CC4=O)c3)c(Cl)c12 (centres unmarked) [Example 59] | – | 10 to 100 | 60
3 | O=C1CCC(N2C(=O)c3ccc(C4CCN(CCCN5CCN(c6cccc(-c7cnc8[nH]cc(C9CC9)c8c7Cl)c6)C(=O)C5)CC4)cc3C2=O)C(=O)N1 (centres unmarked) [Example 71, 5-(1-(3-(4-(3-(4-chloro-3-cyclopropyl-1H-pyrrolo[2,3-b]pyridin-5-yl)phenyl)-3-oxopiperazin-1-yl)propyl)piperidin-4-yl)-2-(2,6-dioxopiperidin-3-yl) isoindoline-1,3-dione] | ≤ 300 | ≤ 10 | –
4 | CCc1c[nH]c2ncc(-c3cccc(N4CCN(CCCN5CCN(c6ccc7c(c6)C(=O)N(C6CCC(=O)NC6=O)C7=O)CC5)CC4=O)c3)c(Cl)c12 (centres unmarked) [Example 27] | – | 10 to 100 | 95
5 | CCc1c[nH]c2ncc(-c3cccc(N4CCN(CC(=O)N5CCN(c6cc7c(cc6F)C(=O)N(C6CCC(=O)NC6=O)C7=O)CC5)CC4=O)c3)c(Cl)c12 (centres unmarked) [Example 29, 5-(4-(2-(4-(3-(4-chloro-3-ethyl-1H-pyrrolo[2,3-b]pyridin-5-yl)phenyl)-3-oxopiperazin-1-yl)acetyl)piperazin-1-yl)-2-(2,6-dioxopiperidin-3-yl)-6-fluoroisoindoline-1,3-dione] | – | 10 to 100 | 80
6 | CCc1c[nH]c2ncc(-c3cccc(N4CCN(C(=O)CCOCCOCCOc5cccc6c5CN(C5CCC(=O)NC5=O)C6=O)CC4=O)c3)c(Cl)c12 (centres unmarked) [Example 12, 3-(4-(2-(2-(3-(4-(3-(4-chloro-3-ethyl-1H-pyrrolo[2,3-b]pyridin-5-yl)phenyl)-3-oxopiperazin-1-yl)-3-oxopropoxy)ethoxy)ethoxy)-1-oxoisoindolin-2-yl)piperidine-2,6-dione] | 3000 to 10000 | 10 to 100 | –
7 | O=C1CCC(N2C(=O)c3ccc(C4=CCN(CCCN5CCN(c6cccc(-c7cnc8[nH]cc(C9CC9)c8c7Cl)n6)C(=O)C5)CC4)cc3C2=O)C(=O)N1 (centres unmarked) [Example 85, 5-(1-(3-(4-(6-(4-chloro-3-cyclopropyl-1H-pyrrolo[2,3-b]pyridin-5-yl)pyridin-2-yl)-3-oxopiperazin-1-yl)propyl)-1,2,3,6-tetrahydropyridin-4-yl)-2-(2,6-dioxopiperidin-3-yl)isoindoline-1,3-dione] | 300 to 3000 | ≤ 10 | –
8 | CCc1c[nH]c2ncc(-c3cccc(N4CCN(C(=O)CCCCCCCOc5cccc6c5CN(C5CCC(=O)NC5=O)C6=O)CC4=O)c3)c(Cl)c12 (centres unmarked) [Example 1] | 3000 to 10000 | 10 to 100 | –
9 | O=C1CCC(Nc2ccc(N3CCN(CCCS(=O)(=O)N4CCN(c5cccc(-c6cnc7[nH]cc(C8CC8)c7c6Cl)c5)C(=O)C4)CC3)c(F)c2)C(=O)N1 (centres unmarked) [Example 105, 3-((4-(4-(3-((4-(3-(4-chloro-3-cyclopropyl-1H-pyrrolo[2,3-b]pyridin-5-yl)phenyl)-3-oxopiperazin-1-yl)sulfonyl)propyl)piperazin-1-yl)-3-fluorophenyl)amino)piperidine-2,6-dione] | ≤ 300 | ≤ 10 | –
10 | O=C1CCC(c2ccc(N3CCN(CCCN4CCN(c5cccc(-c6cnc7[nH]cc(C8CC8)c7c6Cl)c5)C(=O)C4)CC3)cc2)C(=O)N1 (centres unmarked) [Example 75, 3-(4-(4-(3-(4-(3-(4-chloro-3-cyclopropyl-1H-pyrrolo[2,3-b]pyridin-5-yl)phenyl)-3-oxopiperazin-1-yl)propyl)piperazin-1-yl)phenyl)piperidine-2,6-dione] | – | ≤ 10 | 55
11 | O=C1CCC(N2Cc3cc(N4CCN(CCCN5CCN(c6cccc(-c7cnc8[nH]cc(C9CC9)c8c7Cl)n6)C(=O)C5)CC4)ccc3C2=O)C(=O)N1 (centres unmarked) [Example 81, 3-(5-(4-(3-(4-(6-(4-chloro-3-cyclopropyl-1H-pyrrolo[2,3-b]pyridin-5-yl)pyridin-2-yl)-3-oxopiperazin-1-yl)propyl)piperazin-1-yl)-1-oxoisoindolin-2-yl)piperidine-2,6-dione] | ≤ 300 | ≤ 10 | –
12 | O=C1CCC(N2Cc3cc(N4CCC(CCN5CCN(c6cccc(-c7cnc8[nH]cc(C9CC9)c8c7Cl)c6)C(=O)C5)CC4)c(F)cc3C2=O)C(=O)N1 (centres unmarked) [Example 62, 3-(5-(4-(2-(4-(3-(4-chloro-3-cyclopropyl-1H-pyrrolo[2,3-b]pyridin-5-yl)phenyl)-3-oxopiperazin-1-yl)ethyl)piperidin-1-yl)-6-fluoro-1-oxoisoindolin-2-yl)piperidine-2,6-dione] | – | 10 to 100 | 95
13 | CCc1c[nH]c2ncc(-c3cccc(N4CCN(CCOCCN5CCN(c6cc7c(cc6F)C(=O)N(C6CCC(=O)NC6=O)C7=O)CC5)CC4=O)c3)c(Cl)c12 (centres unmarked) [Example 33] | – | 10 to 100 | 60
14 | CCc1c[nH]c2ncc(-c3cccc(N4CCN(CCC(=O)N5CCN(c6ccc7c(c6)C(=O)N(C6CCC(=O)NC6=O)C7=O)CC5)CC4=O)c3)c(Cl)c12 (centres unmarked) [Example 24] | – | 10 to 100 | 91
15 | O=C1CCC(N2Cc3cc(F)c(N4CCC(CCN5CCN(c6cccc(-c7cnc8[nH]cc(C9CC9)c8c7Cl)c6)C(=O)C5)CC4)cc3C2=O)C(=O)N1 (centres unmarked) [Example 61] | – | 100 to 1000 | 50
16 | O=C1CCC(N2Cc3cc(N4CCC(OCC(=O)N5CCN(c6cccc(-c7cnc8[nH]cc(C#Cc9ccccn9)c8c7Cl)c6)C(=O)C5)CC4)ccc3C2=O)C(=O)N1 (centres unmarked) [Example 57, 3-(5-(4-(2-(4-(3-(4-chloro-3-(pyridin-2-ylethynyl)-1H-pyrrolo[2,3-b]pyridin-5-yl)phenyl)-3-oxopiperazin-1-yl)-2-oxoethoxy)piperidin-1-yl)-1-oxoisoindolin-2-yl)piperidine-2,6-dione] | – | 100 to 1000 | 0
